Calls of active or inactive are those of the source. No rule for the calls is given here.
System: CCRIS mutagenicity, Ames/micronucleus/aberration tests
Test: CCRIS mutagenicity studies
[1] = Test System: AMES SALMONELLA TYPHIMURIUM, Strain/Indicator: TA98, Metabolic Activation: NONE, Method: STANDARD PLATE
[2] = Test System: AMES SALMONELLA TYPHIMURIUM, Strain/Indicator: TA98, Metabolic Activation: RAT, LIVER, S-9, AROCLOR 1254, Method: STANDARD PLATE
[3] = Test System: AMES SALMONELLA TYPHIMURIUM, Strain/Indicator: TA100, Metabolic Activation: NONE, Method: STANDARD PLATE
[4] = Test System: AMES SALMONELLA TYPHIMURIUM, Strain/Indicator: TA100, Metabolic Activation: RAT, LIVER, S-9, AROCLOR 1254, Method: STANDARD PLATE
[5] = Test System: AMES SALMONELLA TYPHIMURIUM, Strain/Indicator: TA1535, Metabolic Activation: NONE, Method: STANDARD PLATE
[6] = Test System: AMES SALMONELLA TYPHIMURIUM, Strain/Indicator: TA1535, Metabolic Activation: RAT, LIVER, S-9, AROCLOR 1254, Method: STANDARD PLATE
[7] = Test System: AMES SALMONELLA TYPHIMURIUM, Strain/Indicator: TA1537, Metabolic Activation: NONE, Method: STANDARD PLATE
[8] = Test System: AMES SALMONELLA TYPHIMURIUM, Strain/Indicator: TA1537, Metabolic Activation: RAT, LIVER, S-9, AROCLOR 1254, Method: STANDARD PLATE

COc1cc([N+](=O)[O-])ccc1N=NC(C(C)=O)C(=O)Nc1ccccc1OC (configuration not stated)
mutagenic call (Test System: AMES SALMONELLA TYPHIMURIUM, Strain/Indicator: TA97, Metabolic Activation: HAMSTER, LIVER, S-9, AROCLOR 1254 (10%), Method: PREINCUBATION): inactive; negative
mutagenic call (Test System: AMES SALMONELLA TYPHIMURIUM, Strain/Indicator: TA97, Metabolic Activation: HAMSTER, LIVER, S-9, AROCLOR 1254 (30%), Method: PREINCUBATION): inactive; negative
mutagenic call (Test System: AMES SALMONELLA TYPHIMURIUM, Strain/Indicator: TA97, Metabolic Activation: NONE, Method: PREINCUBATION): inactive; negative
mutagenic call (Test System: AMES SALMONELLA TYPHIMURIUM, Strain/Indicator: TA97, Metabolic Activation: RAT, LIVER, S-9, AROCLOR 1254 (10%), Method: PREINCUBATION): inactive; negative
mutagenic call (Test System: AMES SALMONELLA TYPHIMURIUM, Strain/Indicator: TA97, Metabolic Activation: RAT, LIVER, S-9, AROCLOR 1254 (30%), Method: PREINCUBATION): inactive; negative
mutagenic call (Test System: AMES SALMONELLA TYPHIMURIUM, Strain/Indicator: TA98, Metabolic Activation: HAMSTER, LIVER, S-9, AROCLOR 1254 (10%), Method: PREINCUBATION): inactive; negative
mutagenic call (Test System: AMES SALMONELLA TYPHIMURIUM, Strain/Indicator: TA98, Metabolic Activation: HAMSTER, LIVER, S-9, AROCLOR 1254 (30%), Method: PREINCUBATION): inactive; negative
mutagenic call (Test System: AMES SALMONELLA TYPHIMURIUM, Strain/Indicator: TA98, Metabolic Activation: HAMSTER, LIVER, S-9, AROCLOR 1254, Method: STANDARD PLATE): inactive; negative
mutagenic call (Test System: AMES SALMONELLA TYPHIMURIUM, Strain/Indicator: TA98, Metabolic Activation: NONE, Method: PREINCUBATION): inactive; negative
mutagenic call [1]: inactive; negative
mutagenic call (Test System: AMES SALMONELLA TYPHIMURIUM, Strain/Indicator: TA98, Metabolic Activation: RAT, LIVER, S-9, AROCLOR 1254 (10%), Method: PREINCUBATION): inactive; negative
mutagenic call (Test System: AMES SALMONELLA TYPHIMURIUM, Strain/Indicator: TA98, Metabolic Activation: RAT, LIVER, S-9, AROCLOR 1254 (30%), Method: PREINCUBATION): inactive; negative
mutagenic call [2]: inactive; negative
mutagenic call (Test System: AMES SALMONELLA TYPHIMURIUM, Strain/Indicator: TA100, Metabolic Activation: HAMSTER, LIVER, S-9, AROCLOR 1254 (10%), Method: PREINCUBATION): inactive; negative
mutagenic call (Test System: AMES SALMONELLA TYPHIMURIUM, Strain/Indicator: TA100, Metabolic Activation: HAMSTER, LIVER, S-9, AROCLOR 1254 (30%), Method: PREINCUBATION): inactive; negative
mutagenic call (Test System: AMES SALMONELLA TYPHIMURIUM, Strain/Indicator: TA100, Metabolic Activation: HAMSTER, LIVER, S-9, AROCLOR 1254, Method: STANDARD PLATE): inactive; negative
mutagenic call (Test System: AMES SALMONELLA TYPHIMURIUM, Strain/Indicator: TA100, Metabolic Activation: NONE, Method: PREINCUBATION): inactive; negative
mutagenic call [3]: inactive; negative
mutagenic call (Test System: AMES SALMONELLA TYPHIMURIUM, Strain/Indicator: TA100, Metabolic Activation: RAT, LIVER, S-9, AROCLOR 1254 (10%), Method: PREINCUBATION): inactive; negative
mutagenic call (Test System: AMES SALMONELLA TYPHIMURIUM, Strain/Indicator: TA100, Metabolic Activation: RAT, LIVER, S-9, AROCLOR 1254 (30%), Method: PREINCUBATION): inactive; negative
mutagenic call [4]: inactive; negative
mutagenic call (Test System: AMES SALMONELLA TYPHIMURIUM, Strain/Indicator: TA1535, Metabolic Activation: HAMSTER, LIVER, S-9, AROCLOR 1254 (10%), Method: PREINCUBATION): inactive; negative
mutagenic call (Test System: AMES SALMONELLA TYPHIMURIUM, Strain/Indicator: TA1535, Metabolic Activation: HAMSTER, LIVER, S-9, AROCLOR 1254 (30%), Method: PREINCUBATION): inactive; negative
mutagenic call (Test System: AMES SALMONELLA TYPHIMURIUM, Strain/Indicator: TA1535, Metabolic Activation: HAMSTER, LIVER, S-9, AROCLOR 1254, Method: STANDARD PLATE): inactive; negative
mutagenic call [5]: inactive; negative
mutagenic call (Test System: AMES SALMONELLA TYPHIMURIUM, Strain/Indicator: TA1535, Metabolic Activation: RAT, LIVER, S-9, AROCLOR 1254 (10%), Method: PREINCUBATION): inactive; negative
mutagenic call (Test System: AMES SALMONELLA TYPHIMURIUM, Strain/Indicator: TA1535, Metabolic Activation: RAT, LIVER, S-9, AROCLOR 1254 (30%), Method: PREINCUBATION): inactive; negative
mutagenic call [6]: inactive; negative
mutagenic call (Test System: AMES SALMONELLA TYPHIMURIUM, Strain/Indicator: TA1537, Metabolic Activation: HAMSTER, LIVER, S-9, AROCLOR 1254, Method: STANDARD PLATE): inactive; negative
mutagenic call [7]: inactive; negative
mutagenic call [8]: inactive; negative
mutagenic call (Test System: AMES SALMONELLA TYPHIMURIUM, Strain/Indicator: TA1538, Metabolic Activation: HAMSTER, LIVER, S-9, AROCLOR 1254, Method: STANDARD PLATE): inactive; negative
mutagenic call (Test System: AMES SALMONELLA TYPHIMURIUM, Strain/Indicator: TA1538, Metabolic Activation: NONE, Method: STANDARD PLATE): inactive; negative
mutagenic call (Test System: AMES SALMONELLA TYPHIMURIUM, Strain/Indicator: TA1538, Metabolic Activation: RAT, LIVER, S-9, AROCLOR 1254, Method: STANDARD PLATE): inactive; negative
mutagenic call (Test System: MOUSE LYMPHOMA, Strain/Indicator: L5178Y (TK+/TK-), Metabolic Activation: NONE, Method: SUSPENSION/PLATE): inactive; negative. reevaluation of results: negative
mutagenic call (Test System: MOUSE LYMPHOMA, Strain/Indicator: L5178Y (TK+/TK-), Metabolic Activation: RAT, LIVER, S-9, AROCLOR 1254, Method: SUSPENSION/PLATE): inactive; negative. reevaluation of results: negative

O=S(=O)(Nc1ccc(Cl)cc1)c1cccc2cccnc12
mutagenic call [1]: inactive; negative
mutagenic call [2]: inactive; negative
mutagenic call [3]: inactive; negative
mutagenic call [4]: inactive; negative
mutagenic call [5]: inactive; negative
mutagenic call [6]: inactive; negative
mutagenic call [7]: inactive; negative
mutagenic call [8]: inactive; negative

Nc1snc2ccc([N+](=O)[O-])cc12
mutagenic call [1]: active; positive
mutagenic call (Test System: AMES SALMONELLA TYPHIMURIUM, Strain/Indicator: TA98, Metabolic Activation: S-9, Method: STANDARD PLATE): active; positive
mutagenic call [3]: active; positive
mutagenic call (Test System: AMES SALMONELLA TYPHIMURIUM, Strain/Indicator: TA100, Metabolic Activation: S-9, Method: STANDARD PLATE): active; positive
mutagenic call [5]: inactive; negative
mutagenic call (Test System: AMES SALMONELLA TYPHIMURIUM, Strain/Indicator: TA1535, Metabolic Activation: S-9, Method: STANDARD PLATE): inactive; negative
mutagenic call [7]: active; positive
mutagenic call (Test System: AMES SALMONELLA TYPHIMURIUM, Strain/Indicator: TA1537, Metabolic Activation: S-9, Method: STANDARD PLATE): active; positive
